Reference: ChEMBL document CHEMBL3885861, “Open TG-GATES”

Species on record: Rattus norvegicus
Assay: Open TG-GATES - Regimen: Daily Repeat
Type: toxicity, organism-based, Sprague-Dawley
Set-up: regimen Daily Repeat, gender Male, age 6 weeks
Conditions: in vivo, po, 0 mg/kg, route gavage, dose level Control; for APTT / Bas / Eos / Fbg / Hb / Ht / Lym / MCH / MCHC / MCV / Mono / Neu / PT / Plat / RBC / Ret / WBC: tissue Blood; for KIDNEY_L / KIDNEY_R / KIDNEY_TOTAL: tissue Kidney; for LIVER: tissue Liver; for A/G / ALP / ALT / AST / BUN / CRE / Ca / Cl / DBIL / GLC / IP / K / LDH / Na / PL / RALB / TBIL / TC / TG / TP / gamma-GTP: tissue Plasma

## CN(C)CCC=C1c2ccccc2CCc2ccccc21 [AMITRIPTYLINE]
72 h, time 3 day
  TERMINAL_BW: 226.6 g
  APTT: 14.9 s
  Bas: 0%
  Eos: 1.2%
  Fbg: 287.4 mg/dL
  Hb: 13 g/dL
  Ht: 39.9%
  Lym: 71.4%
  MCH: 21.3 pg
  MCHC: 32.7%
  MCV: 65.1 fL
  Mono: 3.4%
  Neu: 23.4%
  PT: 15.5 s
  Plat: 116.7 x10_4/uL
  RBC: 613.4 x10_4/ul
  Ret: 7.7%
  WBC: 71.8 x10_2/uL
  KIDNEY_L: 0.9 g
  KIDNEY_R: 0.9 g
  KIDNEY_TOTAL: 1.8 g
  LIVER: 10.7 g
  A/G: 0.8
  ALP: 1976.4 IU/L
  ALT: 54.6 IU/L
  AST: 74.2 IU/L
  BUN: 16.4 mg/dL
  CRE: 0.2 mg/dL
  Ca: 11.2 mg/dL
  Cl: 105.6 meq/L
  DBIL: 0.02 mg/dL
  GLC: 179.4 mg/dL
  IP: 7.9 mg/dL
  K: 4.1 meq/L
  LDH: 81 IU/L
  Na: 143.8 meq/L
  PL: 162.2 mg/dL
  RALB: 2.7 g/dL
  TBIL: 0.054 mg/dL
  TC: 83.2 mg/dL
  TG: 121.8 mg/dL
  TP: 5.9 g/dL
  gamma-GTP: 0.6 IU/L
[…], time 7 day
  TERMINAL_BW: 259.7 g
  APTT: 16.5 s
  Bas: 0.6%
  Eos: 1%
  Fbg: 302.6 mg/dL
  Hb: 13.5 g/dL
  Ht: 40.7%
  Lym: 78.8%
  MCH: 20.8 pg
  MCHC: 33.1%
  MCV: 62.8 fL
  Mono: 2.8%
  Neu: 16.4%
  PT: 15.2 s
  Plat: 109.9 x10_4/uL
  RBC: 648.8 x10_4/ul
  Ret: 5.7%
  WBC: 86.3 x10_2/uL
  KIDNEY_L: 1 g
  KIDNEY_R: 1 g
  KIDNEY_TOTAL: 2 g
  LIVER: 11.9 g
  A/G: 0.8
  ALP: 1482.8 IU/L
  ALT: 40.8 IU/L
  AST: 64.2 IU/L
  BUN: 16 mg/dL
  CRE: 0.2 mg/dL
  Ca: 10.9 mg/dL
  Cl: 106.4 meq/L
  DBIL: 0.014 mg/dL
  GLC: 185.8 mg/dL
  IP: 7.5 mg/dL
  K: 3.9 meq/L
  LDH: 56.4 IU/L
  Na: 143.8 meq/L
  PL: 165.8 mg/dL
  RALB: 2.6 g/dL
  TBIL: 0.052 mg/dL
  TC: 81.2 mg/dL
  TG: 131.2 mg/dL
  TP: 5.8 g/dL
  gamma-GTP: 0.6 IU/L
[…], time 14 day
  TERMINAL_BW: 318.6 g
  APTT: 17.3 s
  Bas: 0%
  Eos: 1%
  Fbg: 294.4 mg/dL
  Hb: 13.8 g/dL
  Ht: 41.5%
  Lym: 76.8%
  MCH: 20.9 pg
  MCHC: 33.3%
  MCV: 62.5 fL
  Mono: 2.2%
  Neu: 19%
  PT: 15.6 s
  Plat: 127.9 x10_4/uL
  RBC: 664.4 x10_4/ul
  Ret: 4.7%
  WBC: 94.5 x10_2/uL
  KIDNEY_L: 1.2 g
  KIDNEY_R: 1.2 g
  KIDNEY_TOTAL: 2.5 g
  LIVER: 14 g
  A/G: 0.8
  ALP: 1703.4 IU/L
  ALT: 41.8 IU/L
  AST: 68.6 IU/L
  BUN: 17.6 mg/dL
  CRE: 0.2 mg/dL
  Ca: 10.9 mg/dL
  Cl: 106 meq/L
  DBIL: 0.024 mg/dL
  GLC: 191.8 mg/dL
  IP: 6.3 mg/dL
  K: 4.3 meq/L
  LDH: 70.8 IU/L
  Na: 142.4 meq/L
  PL: 157 mg/dL
  RALB: 2.7 g/dL
  TBIL: 0.046 mg/dL
  TC: 71.6 mg/dL
  TG: 128.8 mg/dL
  TP: 6.1 g/dL
  gamma-GTP: 0.4 IU/L
[…], time 28 day
  TERMINAL_BW: 406.1 g
  APTT: 18.5 s
  Bas: 0.2%
  Eos: 1%
  Fbg: 253 mg/dL
  Hb: 14.9 g/dL
  Ht: 43.8%
  Lym: 77.2%
  MCH: 19.6 pg
  MCHC: 33.9%
  MCV: 57.7 fL
  Mono: 2.6%
  Neu: 18.2%
  PT: 16.2 s
  Plat: 104.1 x10_4/uL
  RBC: 760.8 x10_4/ul
  Ret: 2.5%
  WBC: 120.5 x10_2/uL
  KIDNEY_L: 1.4 g
  KIDNEY_R: 1.4 g
  KIDNEY_TOTAL: 2.8 g
  LIVER: 17 g
  A/G: 0.8
  ALP: 1151.8 IU/L
  ALT: 47.2 IU/L
  AST: 83 IU/L
  BUN: 17.6 mg/dL
  CRE: 0.2 mg/dL
  Ca: 10.5 mg/dL
  Cl: 104.8 meq/L
  DBIL: 0.02 mg/dL
  GLC: 198.6 mg/dL
  IP: 6.3 mg/dL
  K: 3.7 meq/L
  LDH: 116.2 IU/L
  Na: 143 meq/L
  PL: 138 mg/dL
  RALB: 2.8 g/dL
  TBIL: 0.058 mg/dL
  TC: 62 mg/dL
  TG: 134.8 mg/dL
  TP: 6.2 g/dL
  gamma-GTP: 0.4 IU/L
